Results published in ChEMBL document CHEMBL1129561 (J Med Chem, 1996).

How the values were obtained:
Androgen receptor [1] = target: T1, Androgen receptor (Homo sapiens, UniProt P10275)
T1 sequence (P10275 whole entry): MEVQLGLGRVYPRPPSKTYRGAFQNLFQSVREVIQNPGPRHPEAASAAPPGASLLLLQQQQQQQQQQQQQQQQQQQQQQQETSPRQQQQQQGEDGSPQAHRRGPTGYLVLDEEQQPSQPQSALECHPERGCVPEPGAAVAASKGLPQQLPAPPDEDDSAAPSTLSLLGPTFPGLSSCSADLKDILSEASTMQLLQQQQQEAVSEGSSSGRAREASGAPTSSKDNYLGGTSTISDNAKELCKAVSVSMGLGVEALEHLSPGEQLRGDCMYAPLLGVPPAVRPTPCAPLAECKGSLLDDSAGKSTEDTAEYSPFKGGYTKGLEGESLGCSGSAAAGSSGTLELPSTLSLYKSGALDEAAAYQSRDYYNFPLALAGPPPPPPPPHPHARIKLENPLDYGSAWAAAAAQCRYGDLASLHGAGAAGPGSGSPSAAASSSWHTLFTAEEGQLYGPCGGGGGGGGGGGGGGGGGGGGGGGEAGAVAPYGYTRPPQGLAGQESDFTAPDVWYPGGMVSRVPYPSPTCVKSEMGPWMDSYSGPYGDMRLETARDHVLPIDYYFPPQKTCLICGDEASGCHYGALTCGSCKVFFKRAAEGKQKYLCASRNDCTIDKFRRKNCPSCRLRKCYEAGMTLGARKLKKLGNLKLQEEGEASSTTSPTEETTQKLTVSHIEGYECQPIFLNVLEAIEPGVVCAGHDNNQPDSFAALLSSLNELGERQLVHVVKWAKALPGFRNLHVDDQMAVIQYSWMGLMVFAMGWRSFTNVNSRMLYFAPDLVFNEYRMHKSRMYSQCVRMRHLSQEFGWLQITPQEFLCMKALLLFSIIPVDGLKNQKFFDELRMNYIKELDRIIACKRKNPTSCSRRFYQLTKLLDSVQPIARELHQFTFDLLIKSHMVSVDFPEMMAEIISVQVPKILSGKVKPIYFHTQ
Description: Binding affinity for human Androgen receptor

Estrogen receptor [2] = target: T2, Estrogen receptor (Homo sapiens, UniProt Q92731+P03372)
Description: Inhibitory activity against human estrogen receptor

Glucocorticoid receptor [3] = target: T3, Glucocorticoid receptor (Homo sapiens, UniProt P04150)
T3 sequence (P04150 whole entry): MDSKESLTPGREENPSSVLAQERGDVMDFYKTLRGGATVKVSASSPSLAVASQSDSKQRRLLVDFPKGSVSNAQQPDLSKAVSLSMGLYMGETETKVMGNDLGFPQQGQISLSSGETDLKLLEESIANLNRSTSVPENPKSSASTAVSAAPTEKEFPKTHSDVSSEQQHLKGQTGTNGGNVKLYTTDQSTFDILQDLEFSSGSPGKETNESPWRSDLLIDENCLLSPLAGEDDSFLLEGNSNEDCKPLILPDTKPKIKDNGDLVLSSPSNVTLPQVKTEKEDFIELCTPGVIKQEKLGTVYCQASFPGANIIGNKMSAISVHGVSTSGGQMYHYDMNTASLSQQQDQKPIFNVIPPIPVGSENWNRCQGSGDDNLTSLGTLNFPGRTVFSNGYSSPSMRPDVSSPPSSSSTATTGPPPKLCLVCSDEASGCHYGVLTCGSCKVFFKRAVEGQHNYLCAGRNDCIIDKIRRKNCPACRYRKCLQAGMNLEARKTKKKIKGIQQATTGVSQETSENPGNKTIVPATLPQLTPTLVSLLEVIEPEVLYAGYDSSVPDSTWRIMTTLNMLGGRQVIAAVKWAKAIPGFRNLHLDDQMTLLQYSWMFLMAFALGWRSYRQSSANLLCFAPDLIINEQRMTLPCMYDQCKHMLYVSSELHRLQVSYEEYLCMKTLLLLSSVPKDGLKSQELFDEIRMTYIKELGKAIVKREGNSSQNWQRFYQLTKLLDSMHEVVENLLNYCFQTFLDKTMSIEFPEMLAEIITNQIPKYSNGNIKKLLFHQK
Description: Binding affinity was determined for human glucocorticoid receptor(hGR).

Glucocorticoid receptor [4] = target: T3, Glucocorticoid receptor; remark: listed apart in the source
[5] = target: T4, Progesterone receptor (Homo sapiens) (UniProt P06401); conditions: CV-1
T4 sequence (whole entry): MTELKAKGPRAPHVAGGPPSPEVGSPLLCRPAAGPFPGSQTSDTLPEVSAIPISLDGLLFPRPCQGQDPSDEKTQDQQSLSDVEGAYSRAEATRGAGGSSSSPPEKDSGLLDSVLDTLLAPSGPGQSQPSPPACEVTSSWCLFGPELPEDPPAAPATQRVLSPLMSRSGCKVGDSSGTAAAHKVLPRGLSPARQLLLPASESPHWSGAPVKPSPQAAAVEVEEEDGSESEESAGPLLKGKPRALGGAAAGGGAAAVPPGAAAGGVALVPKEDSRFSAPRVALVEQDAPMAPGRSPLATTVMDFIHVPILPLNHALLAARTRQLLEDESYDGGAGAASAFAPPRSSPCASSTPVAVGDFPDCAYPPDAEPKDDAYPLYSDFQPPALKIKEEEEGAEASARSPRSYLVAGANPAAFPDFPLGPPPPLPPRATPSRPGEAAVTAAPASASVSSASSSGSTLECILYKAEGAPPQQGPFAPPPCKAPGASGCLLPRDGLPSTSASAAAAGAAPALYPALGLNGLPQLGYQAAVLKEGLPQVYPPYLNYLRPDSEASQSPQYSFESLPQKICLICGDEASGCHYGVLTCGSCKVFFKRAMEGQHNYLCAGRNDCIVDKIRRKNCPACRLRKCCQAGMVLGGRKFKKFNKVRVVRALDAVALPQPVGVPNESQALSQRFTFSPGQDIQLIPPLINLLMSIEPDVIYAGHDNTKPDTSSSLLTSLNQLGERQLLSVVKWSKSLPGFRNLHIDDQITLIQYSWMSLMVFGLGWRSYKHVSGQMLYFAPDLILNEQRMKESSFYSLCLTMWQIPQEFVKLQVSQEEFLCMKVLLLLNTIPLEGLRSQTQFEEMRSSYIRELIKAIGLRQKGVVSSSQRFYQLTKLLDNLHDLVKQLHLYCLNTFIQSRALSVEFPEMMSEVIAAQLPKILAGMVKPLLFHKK

Androgen receptor [6] = target: T1, Androgen receptor; remark: listed apart in the source
Description: Inhibitory activity against human Androgen receptor

Estrogen receptor [7] = target: T2, Estrogen receptor; remark: listed apart in the source
Description: Binding affinity for human estrogen receptor

[8] = target: T5, Mineralocorticoid receptor (Homo sapiens, UniProt P08235)
T5 sequence (P08235 whole entry): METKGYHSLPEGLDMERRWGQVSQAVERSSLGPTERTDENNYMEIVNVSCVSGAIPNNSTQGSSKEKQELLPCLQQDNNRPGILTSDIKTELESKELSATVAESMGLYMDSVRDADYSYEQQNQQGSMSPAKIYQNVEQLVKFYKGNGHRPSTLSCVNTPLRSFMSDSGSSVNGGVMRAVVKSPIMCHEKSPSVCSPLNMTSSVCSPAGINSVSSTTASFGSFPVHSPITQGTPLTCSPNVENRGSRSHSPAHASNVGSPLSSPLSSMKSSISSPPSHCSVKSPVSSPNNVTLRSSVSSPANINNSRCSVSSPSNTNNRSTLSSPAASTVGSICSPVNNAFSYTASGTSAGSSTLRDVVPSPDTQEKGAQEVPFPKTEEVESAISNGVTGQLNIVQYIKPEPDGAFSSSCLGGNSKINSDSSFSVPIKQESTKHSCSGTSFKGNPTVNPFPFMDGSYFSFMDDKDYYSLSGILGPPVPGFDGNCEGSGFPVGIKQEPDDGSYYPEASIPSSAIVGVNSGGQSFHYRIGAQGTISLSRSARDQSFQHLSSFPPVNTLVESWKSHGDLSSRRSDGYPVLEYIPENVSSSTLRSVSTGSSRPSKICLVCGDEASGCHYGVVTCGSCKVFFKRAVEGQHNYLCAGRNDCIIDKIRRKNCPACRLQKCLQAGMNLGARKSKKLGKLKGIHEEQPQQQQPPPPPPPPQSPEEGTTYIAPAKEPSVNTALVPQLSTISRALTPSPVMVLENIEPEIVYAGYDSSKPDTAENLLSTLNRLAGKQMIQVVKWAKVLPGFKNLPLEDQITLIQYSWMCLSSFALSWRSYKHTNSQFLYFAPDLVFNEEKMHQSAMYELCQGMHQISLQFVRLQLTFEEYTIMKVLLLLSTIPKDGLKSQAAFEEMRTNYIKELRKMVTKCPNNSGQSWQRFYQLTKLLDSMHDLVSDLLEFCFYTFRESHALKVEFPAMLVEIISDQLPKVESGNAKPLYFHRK

Progesterone receptor [9] = target: T6, Progesterone receptor (Homo sapiens, UniProt P06401); experiment: Effective concentration against human Progesterone receptor B isoform expressed in CV-1 cells; assay type: cell-based
T6 sequence (P06401 whole entry): T4 sequence (whole entry)

Progesterone receptor [10] = target: T6, Progesterone receptor
Progesterone receptor [11] = target: T6, Progesterone receptor; remark: listed apart in the source
[12] = target: T4, Progesterone receptor (Homo sapiens); conditions: CV-1; remark: listed apart in the source
Androgen receptor [13] = target: T1, Androgen receptor; remark: listed apart in the source
Description: Binding affinity determined against human Androgen receptor

Progesterone receptor [14] = target: T6, Progesterone receptor; remark: listed apart in the source
Glucocorticoid receptor [15] = target: T3, Glucocorticoid receptor; experiment: Inhibitory activity against human glucocorticoid receptor (hGR)
Glucocorticoid receptor [16] = target: T3, Glucocorticoid receptor; experiment: Binding affinity against human glucocorticoid receptor(hGR).
[17] = target: T5, Mineralocorticoid receptor; experiment: Inhibitory activity against human mineralocorticoid receptor (hMR)

| SMILES | Ki (Androgen receptor [1]) [nM] | IC50 (Estrogen receptor [2]) [nM] | Ki (Glucocorticoid receptor [3]) [nM] | IC50 (Glucocorticoid receptor [4]) [nM] | Max inhibition [5] [%] | IC50 (Androgen receptor [6]) [nM] | Ki (Estrogen receptor [7]) [nM] | IC50 [8] [nM] | EC50 (Progesterone receptor [9]) [nM] | IC50 (Progesterone receptor [10]) [nM] | Ki (Progesterone receptor [11]) [nM] | Max inhibition [12] [%] | Ki (Androgen receptor [13]) [nM] | IC50 (Progesterone receptor [14]) [nM] | IC50 (Glucocorticoid receptor [15]) [nM] | Ki (Glucocorticoid receptor [16]) [nM] | IC50 [17] [nM] |
| --- | --- | --- | --- | --- | --- | --- | --- | --- | --- | --- | --- | --- | --- | --- | --- | --- | --- |
| CN(C)c1ccc([C@H]2CC3(C)[C@@H](CC[C@]3(O)CCCO)[C@@H]3CCC4=CC(=O)CCC4=C32)cc1 (single isomer, unassigned) [ONAPRISTONE] | > 100 | > 1000 | 41.8 | 27 | 99 | 269 | < 20 | > 1000 |  |  |  |  |  |  |  |  |  |
| C=C1C=C(C)CC(C)(C)C1C/C=C/c1cc(OC)c(Br)cc1O (stereo unspecified) |  |  | 4420 |  |  |  |  |  | 3300 | 1600 | 84 | 61 | 2320 |  |  |  |  |
| C=C1CC[C@@H](Br)C(C)(C)[C@H]1Cc1cc(OC)c(Br)cc1O |  | > 10000 |  |  |  | 449 |  |  |  | 354 | 490 | 83 |  | 549 | > 10000 | 3210 |  |
| C=C1CCCC(C)(C)[C@H]1Cc1cc(OC)c(Br)cc1O |  | > 10000 | 1770 |  |  |  | > 10000 |  |  | 210 | 218 | 94 |  | 741 | > 10000 |  | 1500 |
